Where a name gives a salt, the structure may show the parent alone.
Key:
ROS1-positive NSCLC = ROS1-positive NSCLC patients; cited from earlier work
[1] = Dynamic vapour sorption (DVS); type: physicochemical; conditions: relative humidity from about 0 to about 90%, about 25° C.
Experimental: In one embodiment, the solid form is characterized by a DVS isotherm that matches the DVS isotherm depicted in FIG. 6. In one embodiment, the DVS isotherm is as measured at about 25° C.
Approximately, 10-20 mg of sample was placed into a mesh vapour sorption balance pan and loaded into a DVS Advantage dynamic vapour sorption balance by Surface Measurement Systems. The sample was subjected to a ramping profile from 40-90% relative humidity (RH) at 10% increments, maintaining the sample at each step until a stable weight had been achieved (dm/dt 0.004%, minimum step length 30 minutes, maximum step length 500 minutes) at 25° C. After completion of the sorption cycle, the sample was dried using the same procedure to 0% RH and then a second sorption cycle back to 40% RH. Two cycles were performed. The weight change during the sorption/desorption cycles were plotted, allowing for the hygroscopic nature of the sample to be determined. XRPD analysis was then carried out on any solid retained.

[2] = Stability study of Compound 1 drug substance; type: physicochemical
Experimental: A stability study is conducted for Compound 1. Samples were stored at: 30° C.±2° C./65%±5% Relative Humidity (RH), or 40° C.±2° C./75%±5% RH. At regular intervals (e.g., initial, 1, 3, 6, 9, 12, 18, 24, and 36 months), tests are performed for description, assay, related substances, water content, polymorphic form, and chiral purity.
A stability study was conducted for Compound 1 crystalline free base Form 2. Samples were stored at: (1) 30° C.±2° C./65%±5% Relative Humidity (RH), with data collected at 0, 1, 3, 6, 9, and 12 months; and (2) 40° C.±2° C./75%±5% RH, with data collected at 0, 1, 3, and 6 months. At the indicated time points, tests were performed for description, assay, related substances, water content, polymorphic form, and chiral purity.

[3] = Solubility of salts of Compound 2 and free base in distilled water (gravimetric); type: physicochemical; conditions: for Solubility (mg solid/mL water): distilled water, RT, stirred 3 days, gravimetric; for XRPD Pattern Recovered: solid recovered after slurry in water at RT
Experimental: Solubility of the scaled-up salts of Compound 2 and free base Compound 2 was assessed in distilled water at RT. Approximately 30 mg of solid was weighed directly into 2 mL vials, and a 6 mm stir bar was added to each vial. Water was then incrementally added to the vials (starting with 1 vol.) and the resulting slurries were left to stir for 10-15 min prior to the next addition. As all solids remained in slurries upon the addition of 1 mL of water, the gravimetric method was adopted, and the vials were stirred at RT for 3 days before centrifuging. Supernatant solutions were recovered and evaporated to dryness at 50° C. in atmosphere on a hot plate, then placed at 50° C. under vacuum (˜−29 inHg) for 3 h before final weighing.

[4] = Solid-form stability study of salts of Compound 2 (75% RH, 40° C., 7 days); type: physicochemical; conditions: for Purity (%) After / Purity (%) Before: HPLC; for Purity (%) After / XRPD Pattern After: after 7 days at 75% RH and 40° C.; for Purity (%) Before: before stress test
Experimental: Solid-form stability studies were completed by weighing approximately 30 mg each of Form A of the camsylate, esylate, mesylate, and sulfate salts of Compound 2 into 4 mL vials and covering with a Kimwipe. The vials were placed inside a humidity chamber set to 75% RH at 40° C. for 7 days. The HPLC and XRPD data was collected to confirm the purity and identity of the solid forms. The four salts were physically and chemically stable. No decrease in purity (i.e. less than 0.1%) or form change was observed after a seven-day stress test at 75% relative humidity (RH) and 40° C. (Table 5).

[5] = Salt screen of Compound 2: XRPD after drying and humidification; conditions: vacuum 50° C. at least 3 h, >95% RH overnight
[6] = Solvent solubility screen; type: physicochemical; conditions: organic solvent or mixture, thermodynamic from solid; majority of the solvents investigated
Excerpt: Solids were recovered from these solutions by the addition of anti-solvent to give an indication of solid form, with Form 2 predominantly observed.

Solubility (mg solid/mL water) [3]	XRPD Pattern Recovered [3]	Purity (%) After [4]	Purity (%) Before [4]	XRPD Pattern After [4]	Stability of crystalline salt pattern to drying and humidification [5]	SMILES	further results
						C[C@@H](Oc1cc(-c2cnn(C3CCNCC3)c2)cnc1N)c1c(Cl)ccc(F)c1Cl [Crizotinib]	Median progression-free survival (ROS1-positive NSCLC): 9-19 months
						CCn1nc(Cl)c2c1-c1cnc(N)c(c1)O[C@H](C)c1cc(F)ccc1-c1nn(C)cc1C2 [Form 2]	DVS weight increase [1]: about 0.3%; Chemical and physical stability (description, assay, related substances, polymorphic form, chiral purity) ([2]; 30° C.±2° C./65%±5% RH, 12 months (Example 21)): no meaningful change; Chemical and physical stability (description, assay, related substances, polymorphic form, chiral purity) ([2]; 40° C.±2° C./75%±5% RH, 6 months (Example 21)): no meaningful change
8 mg solid/mL water	Form A	99.94%	99.92%	Form A	stable to drying and humidification	CCn1cc(Cc2cn(C)nc2-c2ccc(F)cc2[C@@H](C)Oc2cc(Br)cnc2N)c(Cl)n1 [Mesylate Salt]	
<3 mg solid/mL water	Form A	99.97%	99.97%	Form A	stable to drying and humidification	CCn1cc(Cc2cn(C)nc2-c2ccc(F)cc2[C@@H](C)Oc2cc(Br)cnc2N)c(Cl)n1 [Sulfate Salt]	
						CCn1nc(Cl)c2c1-c1cnc(N)c(c1)O[C@H](C)c1cc(F)ccc1-c1nn(C)cc1C2 [lyophilized material]	solubility [6]: > 150 mg/mL

— patent US20230322797A1, “SOLID FORMS, PHARMACEUTICAL COMPOSITIONS AND PREPARATION OF HETEROAROMATIC MACROCYCLIC ETHER COMPOUNDS” (Nuvalent, Inc., priority 2022, published 2023)
